Source: patent publication US11319337B2, “3-desoxy derivative and pharmaceutical compositions thereof” (Intercept Pharmaceuticals, Inc., priority 2016, dated 2022)
Converted amounts (≈) assume the structure as drawn. Counter-ions that a name gives are not always drawn. Like-named read-outs stand apart in the source and are kept apart here.

Experiments:
[1] = target: T1, Human FXR (Homo sapiens, UniProt Q96RI1); assay: AlphaScreen assay, FXR-LBD-GST / SRC-1 LXXLL peptide recruitment; type: biochemical
T1 construct: Human FXR-LBD-GST was incubated
T1 sequence (Q96RI1 262-486 limits assumed): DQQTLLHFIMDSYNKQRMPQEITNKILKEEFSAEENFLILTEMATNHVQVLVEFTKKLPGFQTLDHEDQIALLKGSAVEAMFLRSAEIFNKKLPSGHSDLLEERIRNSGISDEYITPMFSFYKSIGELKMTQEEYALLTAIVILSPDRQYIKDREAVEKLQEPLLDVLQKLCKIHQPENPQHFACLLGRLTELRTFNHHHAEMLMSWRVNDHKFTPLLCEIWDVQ

[2] = target: T2, Human TGR5 (Homo sapiens, UniProt Q8TDU6); assay: HTR-FRET intracellular cAMP assay in NCI-H716 cells; type: cell-based
T2 construct: Human enteroendocrine NCI-H716 cells constitutively expressing TGR5; endogenous in cells; host or cells: NCI-H716
T2 sequence (Q8TDU6 1-330): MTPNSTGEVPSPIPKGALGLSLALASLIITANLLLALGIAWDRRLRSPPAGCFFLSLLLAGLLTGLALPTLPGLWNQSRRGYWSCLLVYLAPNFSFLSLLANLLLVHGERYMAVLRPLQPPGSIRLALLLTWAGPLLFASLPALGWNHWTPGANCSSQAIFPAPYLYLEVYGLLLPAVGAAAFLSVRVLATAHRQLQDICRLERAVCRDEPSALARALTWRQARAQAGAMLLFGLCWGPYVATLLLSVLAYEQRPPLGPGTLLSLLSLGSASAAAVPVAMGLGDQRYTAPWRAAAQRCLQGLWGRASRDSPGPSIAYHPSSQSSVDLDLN

[3] = target: mFXR (Mus musculus, UniProt Q60641); assay: FXR cross species activity, mFXR; type: biochemical; settings: Table 2, cross species
[4] = target: rFXR (Rattus norvegicus, UniProt Q62735); assay: FXR cross species activity, rFXR; type: biochemical; settings: Table 2, cross species
[5] = target: T3, dFXR (Canis lupus familiaris, UniProt A0A8I3N2S7); assay: FXR cross species activity, dFXR; type: biochemical, dog; settings: Table 2, cross species
T3 construct: printed for the human protein only; fused on or other part: GST tag, printed only for the human construct

[6] = target: mTGR5 (Mus musculus, UniProt Q80SS6); assay: TGR5 cross species activity, mTGR5; type: cell-based; settings: Table 3, cross species
[7] = target: rTGR5 (Rattus norvegicus, UniProt Q80T02); assay: TGR5 cross species activity, rTGR5; type: cell-based; settings: Table 3, cross species
[8] = target: dTGR5 (Canis lupus familiaris, UniProt A0A8I3PZA6); assay: TGR5 cross species activity, dTGR5; type: cell-based, dog; settings: Table 3, cross species
[9] = target: LXRα (Homo sapiens, UniProt Q13133); assay: AlphaScreen nuclear receptor profile (agonist mode), LXRα; type: biochemical
[10] = target: CAR (Homo sapiens, UniProt Q14994); assay: AlphaScreen nuclear receptor profile (agonist mode), CAR; type: biochemical
[11] = target: LXRβ (Homo sapiens, UniProt P55055); assay: AlphaScreen nuclear receptor profile (agonist mode), LXRβ; type: biochemical
[12] = target: PPARα (Homo sapiens, UniProt Q07869); assay: AlphaScreen nuclear receptor profile (agonist mode), PPARα; type: biochemical
[13] = target: PPARδ (Homo sapiens, UniProt Q03181); assay: AlphaScreen nuclear receptor profile (agonist mode), PPARδ; type: biochemical
Excerpt: Using the AlphaScreen assay, the selectivity of Compound 1 against the following nuclear receptors involved in the metabolic pathways can be evaluated: LXRα, LXRβ, PXR, CAR, […], PPARδ, PPARγ, RAR, RARα, VDR, TR, PR, RXRα, GR, and ER.

[14] = target: PPARγ (Homo sapiens, UniProt P37231); assay: AlphaScreen nuclear receptor profile (agonist mode), PPARγ; type: biochemical
[15] = target: PXR (Homo sapiens, UniProt O75469); assay: AlphaScreen nuclear receptor profile (agonist mode), PXR; type: biochemical
[16] = target: RAR; assay: AlphaScreen nuclear receptor profile (agonist mode), RAR; type: biochemical
[17] = target: RXRα (Homo sapiens, UniProt P19793); assay: AlphaScreen nuclear receptor profile (agonist mode), RXRα; type: biochemical
[18] = target: VDR (Homo sapiens, UniProt P11473); assay: AlphaScreen nuclear receptor profile (agonist mode), VDR; type: biochemical
[19] = target: ER; assay: AlphaScreen nuclear receptor profile (agonist mode), ER; type: biochemical
[20] = target: GR (Homo sapiens, UniProt P04150); assay: AlphaScreen nuclear receptor profile (agonist mode), GR; type: biochemical
[21] = target: PR (Homo sapiens, UniProt P06401); assay: AlphaScreen nuclear receptor profile (agonist mode), PR; type: biochemical
[22] = target: TR; assay: AlphaScreen nuclear receptor profile (agonist mode), TR; type: biochemical
[23] = tested on: HepG2 cells; assay: In vitro cytotoxicity, LDH release; type: cell-based; settings: Homo sapiens
[24] = tested on: HepG2 cells; assay: In vitro cytotoxicity, cell viability by ATP content; type: cell-based; settings: Homo sapiens, HepG2, read-out: ATP Content EC50
[25] = target: T4, CYP1A2 (Homo sapiens, UniProt P05177); assay: CYP450 screening, fluorescent signal, recombinant baculosomes, CYP1A2; type: in vitro ADME
T4 construct: purchased Invitrogen

[26] = target: T5, CYP3A4 (Homo sapiens, UniProt P08684); assay: CYP450 screening, fluorescent signal, recombinant baculosomes, CYP3A4; type: in vitro ADME
T5 construct: purchased Invitrogen

[27] = target: T6, CYP2C9 (Homo sapiens, UniProt P11712); assay: CYP450 screening, fluorescent signal, recombinant baculosomes, CYP2C9; type: in vitro ADME
T6 construct: purchased Invitrogen

[28] = target: T7, CYP2C19 (Homo sapiens, UniProt P33261); assay: CYP450 screening, fluorescent signal, recombinant baculosomes, CYP2C19; type: in vitro ADME
T7 construct: purchased Invitrogen; host or cells: baculosomes (insect-cell microsomes)

[29] = target: T8, CYP2D6 (Homo sapiens, UniProt P10635); assay: CYP450 screening, fluorescent signal, recombinant baculosomes, CYP2D6; type: in vitro ADME
T8 construct: purchased Invitrogen; host or cells: baculosomes (insect-cell microsomes)

[30] = target: T9, CYP2E1 (Homo sapiens, UniProt P05181); assay: CYP450 screening, fluorescent signal, recombinant baculosomes, CYP2E1; type: in vitro ADME
T9 construct: purchased Invitrogen; host or cells: baculosomes (insect-cell microsomes)
Excerpt: To evaluate the potential of Compound 1 for drug-drug interactions, the six main CYP450 isoforms (CYP1A2, CYP2C9, CYP2C19, CYP2D6, CYP2E1, CYP3A4) are investigated (Obach, et al., J Pharmacol. Exp. Ther, 2006, 316, 336-348).

[31] = target: T10, Pgp (Homo sapiens, UniProt P08183); assay: Pgp-Glo Assay, Pgp ATPase activity; type: in vitro ADME; settings: read-out: Pgp Substrate EC50
T10 construct: purchased V3591 and V3601
Excerpt: The impact of Compound 1 on Pgp ATPase activity was examined in Pgp-GloTM Assay (Technical Bulletin; Pgp-GloTM Assay Systems Instructions for Use of Products […] and […]; Revised November 2015) according to the manufacturer's standard protocol.

[32] = Critical micellar concentration; type: physicochemical; settings: in […] NaCl water solution
[33] = 1-octanol-water partition coefficient (LogPA-); type: physicochemical; settings: bile acids as ionized species
Method: (§1) Physiochemical properties of Compound 1 such as water solubility, critical micellar concentration, surface tension, and LogPA were determined using methods known in the art.

[34] = target: hERG potassium channel (Homo sapiens, UniProt Q12809); assay: biochemical
[35] = Water solubility; type: physicochemical; settings: BA as protonated species, hs = highly soluble, read-out: Ws (water solubility)
Method: as §1

[36] = Surface tension at CMC; type: physicochemical; settings: in […] NaCl water solution; in mN/m (unit assumed)
Method: as §1

## CC[C@H]1[C@@H](O)[C@@H]2[C@H]([C@@H](O)C[C@]3(C)[C@@H]([C@H](C)CCC(=O)O)CC[C@@H]23)[C@@]2(C)CCCC[C@@H]12 [Compound 1, 7α,11β-dihydroxy-6α-ethyl-5β-cholan-24-oic acid]
[1]
  FXR activation, in words: potent and selective activator
[1]; Table 1, Human FXR-LBD-GST with biotinylated LXXLL SRC-1 peptide, quantity not named in head (EC50 per Table 2)
  EC50: 0.14 ± 0.04 µM
[1]; listed as compound of this invention
  FXR activation, in words: potent FXR agonists
[2]
  selectivity for FXR over TGR5, in words: high selectivity for FXR over TGR5
[2]; Table 1, intracellular cAMP, NCI-H716 cells, quantity not named in head (EC50 per Table 3), read-out: HTR-FRET (cAMP) Human TGR5 (NCI-H716 cells)
  EC50: > 200 µM
[2]; Table 3, cross species, read-out: hTGR5 EC50
  EC50: > 200 µM
[3]
  EC50: 0.6 ± 0.02 µM
[4]
  EC50: 0.49 ± 0.01 µM
[5]
  EC50: 1.65 ± 0.05 µM
[6]
  EC50: > 200 µM
[7]
  EC50: > 200 µM
[8]
  EC50: > 200 µM
[9]
  EC50: > 300 µM
[10]
  EC50: > 300 µM
[11]
  EC50: > 300 µM
[12]
  EC50: > 300 µM
[13]
  EC50: > 300 µM
[14]
  EC50: > 300 µM
[15]
  EC50: > 300 µM
[16]
  EC50: > 300 µM
[17]
  EC50: > 300 µM
[18]
  EC50: > 300 µM
[19]
  EC50: > 300 µM
[20]
  EC50: > 300 µM
[21]
  EC50: > 300 µM
[22]
  EC50: > 300 µM
[23]
  EC50: > 300 µM
[24]
  EC50: > 300 µM
[25]
  IC50: > 10 µM
[26]; Blue Substrate, read-out: CYP3A4 (Blue Substrate) IC50
  IC50: > 10 µM
[26]; Green Substrate, read-out: CYP3A4 (Green Substrate) IC50
  IC50: > 10 µM
[27]
  IC50: > 10 µM
[28]
  IC50: > 10 µM
[29]
  IC50: > 10 µM
[30]
  IC50: > 10 µM
[31]
  EC50: > 300 µM
[32]
  CMC (Critical Micellar Concentration): 2.0 mM
[33]
  LogPA- (1-octanol-water partition coefficient): 1.8
[34]
  IC50: > 100 µM

## CC[C@H]1[C@@H](O)[C@@H]2[C@H](CC[C@]3(C)[C@@H]([C@H](C)CCC(=O)O)CC[C@@H]23)[C@@]2(C)CC[C@@H](O)C[C@@H]12 [Compound A, 6α-ethyl-3α,7α-dihydroxy-5β-cholan-24-oic acid]
[35]
  solubility: 9 mM (≈ 3.79 mg/mL)
[32]
  CMC (Critical Micellar Concentration): 2.9 mM
[36]
  STCMC (Surface Tension at CMC): 43.2-48.8
[33]
  LogPA- (1-octanol-water partition coefficient): 2.5

## CC[C@H]1[C@@H](O)C2C3C[C@H](O)[C@H]([C@H](C)CCC(=O)O)[C@@]3(C)CCC2[C@@]2(C)CC[C@@H](O)C[C@@H]12 (some centres unmarked) [Compound E]
[35]
  solubility: 120 mM (≈ 52.4 mg/mL)
[32]
  CMC (Critical Micellar Concentration): 5.9 mM
[36]
  STCMC (Surface Tension at CMC): 52.4
[33]
  LogPA- (1-octanol-water partition coefficient): 1.6

## CC[C@H]1[C@@H](O)C2C3CC[C@H]([C@H](C)C[C@H](C)C(=O)O)[C@@]3(C)CCC2[C@@]2(C)CC[C@@H](O)C[C@@H]12 (stereo partly drawn) [Compound D, 6α-ethyl-23(R)-methyl chenodeoxycholic acid]
[35]
  solubility: 15 mM (≈ 6.52 mg/mL)
[33]
  LogPA- (1-octanol-water partition coefficient): 2.9

## CCC1C(O)C2C3CCC(C(C)CCOS(=O)(=O)O)C3(C)CCC2C2(C)CCC(O)CC12 (stereo not drawn) [Compound B, 6α-ethyl-3α,7α,23-trihydroxy-24-nor-5β-cholan-23-sulfate sodium salt]
[33]
  LogPA- (1-octanol-water partition coefficient): 2.0

## CC[C@H]1[C@@H](O)C2C3CC[C@H]([C@H](C)CCC(=O)O)[C@@]3(C)C[C@H](O)C2[C@@]2(C)CC[C@@H](O)C[C@@H]12 (stereo partly drawn) [Compound F, 3α,7α,11β-dihydroxy-6α-ethyl-5β-cholan-24-oic acid]
[35]
  solubility: 143 to 150 mM (≈ 62.4 to 65.5 mg/mL)
[33]
  LogPA- (1-octanol-water partition coefficient): 0.8

## CC[C@H]1[C@@H](O)[C@@H]2[C@H](C[C@H](O)[C@]3(C)[C@@H]([C@H](C)C[C@H](C)C(=O)O)CC[C@@H]23)[C@@]2(C)CC[C@@H](O)C[C@@H]12 [Compound C, 6α-ethyl-23(S)-methyl-3α,7α,12α trihydroxy-5β-cholan-24-oic acid]
[35]
  solubility: 99 mM (≈ 44.6 mg/mL)
[32]
  CMC (Critical Micellar Concentration): 2 mM
[36]
  STCMC (Surface Tension at CMC): 50.1
[33]
  LogPA- (1-octanol-water partition coefficient): 1.4
